Assay: xn = mol fraction of the nth substance listed
Conditions: 101 kPa

Cc1cccc(C)c1 + CCCCCCCCCCO
viscosity [mPa·s]
Conditions	298.15 K	308.15 K
x1 = 0.0627	9.938	6.871
x1 = 0.1424	7.856	5.489
x1 = 0.2052	6.481	4.577
x1 = 0.2618	5.435	3.88
x1 = 0.3217	4.497	3.243
x1 = 0.3934	3.563	2.622
x1 = 0.4989	2.534	1.912
x1 = 0.5581	2.095	1.617
x1 = 0.6343	1.645	1.299
x1 = 0.7131	1.292	1.045
x1 = 0.7991	1.001	0.835
x1 = 0.8465	0.874	0.742
x1 = 0.8964	0.762	0.662
x1 = 0.9421	0.674	0.599

Cc1cccc(C)c1 + CCCCCCO
Conditions	viscosity [mPa·s]
303.15 K, x2 = 0.2002	0.683
313.15 K, x2 = 0.5	0.965
323.15 K, x2 = 0.4001	0.693

NCCCO + CCCCCCn1cc[n+](C)c1.F[B-](F)(F)F
Conditions	viscosity [mPa·s]
303.15 K, x2 = 0.3217	34.55
308.15 K, x2 = 0.4942	36.45

O=S1(=O)CCCC1 + CCCCCO
viscosity [mPa·s]
Conditions	x1 = 0.1119	x1 = 0.2324	x1 = 0.3323	x1 = 0.4328	x1 = 0.5236	x1 = 0.6267	x1 = 0.7208	x1 = 0.8145	x1 = 0.9043
303.15 K	2.686	2.749	2.951	3.218	3.489	3.956	4.594	5.618	7.273
308.15 K	2.366	2.416	2.578	2.807	3.082	3.491	4.077	4.986	6.441
313.15 K	2.096	2.14	2.278	2.479	2.729	3.111	3.644	4.454	5.735

Cc1ccc(O)cc1 + CCCCN(CCCC)CCCC
298.16 K
Conditions	viscosity [mPa·s]
x1 = 0.5103	5.579
x1 = 0.5404	5.375
x1 = 0.5979	9.34
x1 = 0.6392	17.64
x1 = 0.6996	33.29
x1 = 0.7333	51.5
x1 = 0.7543	67.62
x1 = 0.7729	84.91
x1 = 0.7927	101.9
x1 = 0.8108	118
x1 = 0.8352	127.1
x1 = 0.8549	122.8
x1 = 0.8734	104.8
x1 = 0.893	82.05
x1 = 0.9161	61.96
x1 = 0.9375	42.17
x1 = 0.9497	33.73
x2 = 0.005161	13.13

Cc1ccc(O)cc1 + CCCCNCCCC
298.16 K
Conditions	viscosity [mPa·s]
x1 = 0.4487	3.678
x1 = 0.4877	5.428
x1 = 0.5489	7.609
x1 = 0.5951	11.91
x1 = 0.6192	13.62
x1 = 0.6457	16.41
x1 = 0.6924	28.49
x1 = 0.7098	33.96
x1 = 0.7329	43.07
x1 = 0.7632	61.06
x1 = 0.7959	79.23
x1 = 0.833	89.65
x1 = 0.8754	78.76
x1 = 0.902	60.59
x1 = 0.9421	33.43
x2 = 0.001967	12.1
x2 = 0.003431	17.88
x2 = 0.015	18.21

Reference: the CheMixHub viscosity set
